This note sets out measurements from ChEMBL document CHEMBL4342467, “Discovery of a Novel Dual-Target Inhibitor of ERK1 and ERK5 That Induces Regulated Cell Death to Overcome Compensatory Mechanism in Specific Tumor Types” (J Med Chem, 2020).

By inhibition is commonly meant how much of the control response was suppressed. A higher inhibition goes with a strong effect. Broadly, the pIC50 is −log10 of the IC50, conventionally taken in molar units.

The target of experiment [1] is Mitogen-activated protein kinase 7 (Homo sapiens) (UniProt Q13164). Briefly: Inhibition of ERK5 (unknown origin) at 1 uM by Z'-Lyte assay relative to control.
Experiment [2] concerns the target Mitogen-activated protein kinase 3 (Homo sapiens) (UniProt P27361). Briefly: Inhibition of ERK1 (unknown origin) at 1 uM by Z'-Lyte assay relative to control.
The target in experiment [3] is Mitogen-activated protein kinase 1 (Homo sapiens) (UniProt P28482). Kind of experiment: Inhibition of ERK2 (unknown origin) at 1 uM by Z'-Lyte assay relative to control.
A further experiment relates to MKN-74. Briefly: Antiproliferative activity against human MKN74 cells assessed as reduction in cell viability measured after 24 hrs. The conditions noted are these: MKN-74, 24 h. In kind it is functional, cell-based.
The subject of the next experiment is HeLa. Kind of experiment: Antiproliferative activity against human HeLa cells assessed as reduction in cell viability measured after 24 hrs. Type of experiment: functional, cell-based.
The test system of another experiment is HL-60. Kind of experiment: Antiproliferative activity against human HL60 cells assessed as reduction in cell viability measured after 24 hrs. Type of experiment: functional, cell-based. The conditions noted are these: HL-60, 24 h.

pIC50: −log10 of the molar value. Some results are limits rather than exact numbers.

Sequence of Mitogen-activated protein kinase 1 (Homo sapiens) (P28482 whole entry): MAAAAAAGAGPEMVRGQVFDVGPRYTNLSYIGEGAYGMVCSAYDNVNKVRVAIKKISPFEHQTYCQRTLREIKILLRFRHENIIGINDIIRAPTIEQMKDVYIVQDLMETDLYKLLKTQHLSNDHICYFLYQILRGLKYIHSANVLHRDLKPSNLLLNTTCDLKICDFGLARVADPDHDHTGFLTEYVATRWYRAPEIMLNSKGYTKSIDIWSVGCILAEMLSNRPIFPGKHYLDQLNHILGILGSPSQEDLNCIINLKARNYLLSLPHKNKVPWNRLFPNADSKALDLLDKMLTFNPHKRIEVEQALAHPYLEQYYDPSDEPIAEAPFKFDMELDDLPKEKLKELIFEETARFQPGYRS
Sequence of Mitogen-activated protein kinase 3 (Homo sapiens) (P27361 whole entry): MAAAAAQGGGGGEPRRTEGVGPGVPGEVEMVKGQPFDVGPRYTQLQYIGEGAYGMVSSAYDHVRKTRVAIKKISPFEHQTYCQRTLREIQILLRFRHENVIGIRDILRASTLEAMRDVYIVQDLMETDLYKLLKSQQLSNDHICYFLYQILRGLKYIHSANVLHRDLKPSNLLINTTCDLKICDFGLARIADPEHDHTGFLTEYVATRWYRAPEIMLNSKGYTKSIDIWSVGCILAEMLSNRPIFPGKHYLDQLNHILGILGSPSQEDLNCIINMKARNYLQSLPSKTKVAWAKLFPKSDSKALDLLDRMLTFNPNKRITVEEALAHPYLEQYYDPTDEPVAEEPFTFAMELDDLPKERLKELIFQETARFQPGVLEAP
Sequence of Mitogen-activated protein kinase 7 (Homo sapiens) (Q13164 2-816 limits assumed): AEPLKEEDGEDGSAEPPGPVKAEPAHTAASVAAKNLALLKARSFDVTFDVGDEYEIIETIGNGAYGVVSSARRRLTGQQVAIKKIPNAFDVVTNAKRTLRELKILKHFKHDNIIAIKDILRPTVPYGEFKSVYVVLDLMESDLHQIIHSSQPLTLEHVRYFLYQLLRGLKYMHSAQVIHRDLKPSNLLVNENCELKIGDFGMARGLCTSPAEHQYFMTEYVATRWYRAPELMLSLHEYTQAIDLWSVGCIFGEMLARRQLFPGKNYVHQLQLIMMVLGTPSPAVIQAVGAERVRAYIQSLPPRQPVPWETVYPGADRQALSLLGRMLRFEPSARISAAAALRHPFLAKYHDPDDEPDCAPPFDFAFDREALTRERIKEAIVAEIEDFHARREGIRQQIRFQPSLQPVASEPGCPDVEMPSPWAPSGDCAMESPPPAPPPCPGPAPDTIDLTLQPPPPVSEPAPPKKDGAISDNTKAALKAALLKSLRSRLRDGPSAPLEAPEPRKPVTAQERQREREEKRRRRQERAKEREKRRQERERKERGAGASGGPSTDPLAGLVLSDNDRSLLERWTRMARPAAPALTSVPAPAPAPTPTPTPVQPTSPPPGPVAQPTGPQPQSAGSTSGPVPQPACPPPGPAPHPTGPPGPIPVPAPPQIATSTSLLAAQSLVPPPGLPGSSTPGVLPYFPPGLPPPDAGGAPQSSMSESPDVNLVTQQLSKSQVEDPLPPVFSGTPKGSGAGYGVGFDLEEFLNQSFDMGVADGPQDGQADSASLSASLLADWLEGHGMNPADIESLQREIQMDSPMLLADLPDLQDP

As for `NC(=O)c1c(NC(=O)c2ccccc2Cl)sc2c1CCN(Cc1ccccc1F)C2`, the inhibition in experiment [1] stood at 37.9%; in experiment [2] it was 68.3%; in experiment [3], 71.6%. In addition, the pIC50 in the experiment on MKN-74 was 4.89; with HeLa it was less than 4.30; with HL-60, 4.66.
As to `NC(=O)c1c(NC(=O)c2ccccc2Br)sc2c1CCN(C(=S)Nc1ccccc1Cl)C2`, the inhibition in experiment [1] was 80.5%; in experiment [2], 87.7%; in experiment [3] it was 89.7%. In addition, the pIC50 with MKN-74 was 4.89; in the experiment with HeLa, 4.33; in the experiment with HL-60, 4.84.
Regarding `NC(=O)c1c(NC(=O)c2ccccc2F)sc2c1CCN(C(=O)Nc1ccccc1Cl)C2`, the inhibition in experiment [1] was 54.9%; in experiment [2], 65%; in experiment [3], 62.4%. Besides, the pIC50 is 4.30 in the experiment on MKN-74, less than 4.30 with HeLa and 4.48 in the experiment on HL-60.
For the compound `COc1ccc(NC(=S)N2CCc3c(sc(NC(=O)c4ccccc4Cl)c3C(N)=O)C2)cc1`, the inhibition in experiment [1] came out at 55.7%; in experiment [2], 78.1%; in experiment [3], 68.7%. Further, the pIC50 in the experiment with MKN-74 was 4.71; in the experiment on HeLa, 4.44; in the experiment with HL-60, 4.80.
With `Cc1ccccc1NC(=S)N1CCc2c(sc(NC(=O)c3ccccc3Br)c2C(N)=O)C1`, the inhibition in experiment [1] was 46.7%; in experiment [2], 65.1%; in experiment [3], 60.8%. The pIC50 with MKN-74, in the experiment on HeLa and in the experiment on HL-60 was less than 4.30 each time.
Consider `Cc1ccc(C(=O)Nc2sc3c(c2C(N)=O)CCN(Cc2c(Cl)cccc2Cl)C3)cc1`, for which the results for the inhibition in experiment [1], in experiment [2] and in experiment [3] were 46%, 42.8% and 45.4%, respectively. Also, the results for the pIC50 in the experiment on MKN-74, with HeLa and in the experiment on HL-60 were 4.91, 4.32 and 5.00, respectively.
Take `NC(=O)c1c(NC(=O)c2ccccc2I)sc2c1CCN(C(=S)Nc1ccccc1Cl)C2`: the results for the inhibition in experiment [1], in experiment [2] and in experiment [3] were 80.4%, 83.5% and 85.8%, respectively. The pIC50 was 4.76 with MKN-74, less than 4.30 in the experiment on HeLa and 5.07 with HL-60.
On to `NC(=O)c1c(NC(=O)c2ccccc2Cl)sc2c1CCN(Cc1ccc([N+](=O)[O-])cc1)C2`, for which the inhibition in experiment [1] is 65%; in experiment [2], 66.2%; in experiment [3], 63.1%. The pIC50 with MKN-74 was 4.50; with HeLa, 4.34; with HL-60, 4.94.
With `NC(=O)c1c(NC(=O)c2ccccc2Cl)sc2c1CCN(Cc1ccc(Cl)cc1)C2`, the inhibition in experiment [1] was 47%; in experiment [2], 47.4%; in experiment [3], 55.4%. Besides, the pIC50 with MKN-74 was 4.73; with HeLa, less than 4.30; with HL-60, 4.65.
As to `NC(=O)c1c(NC(=O)c2ccc(C(F)(F)F)cc2)sc2c1CCN(Cc1ccccc1F)C2`, the inhibition in experiment [1] is 56.8%; in experiment [2] it was 72.2%; in experiment [3], 76.8%. Also, the pIC50 in the experiment with MKN-74 was 4.57; in the experiment on HeLa it was less than 4.30; in the experiment on HL-60, less than 4.30.
Regarding `NC(=O)c1c(NC(=O)c2ccccc2Cl)sc2c1CCN(Cc1ccccc1Cl)C2`, the inhibition in experiment [1] amounted to 65.1%; in experiment [2], 61.4%; in experiment [3], 65.2%. The pIC50 in the experiment with MKN-74 is 5.35; in the experiment on HeLa, 4.56; in the experiment on HL-60, 5.54.
`NC(=O)c1c(NC(=O)c2ccccc2Cl)sc2c1CCN(Cc1cc(Cl)cc(Cl)c1)C2`: the inhibition turned out to be 22.9% in experiment [1], 61% in experiment [2] and 59.9% in experiment [3]. Moreover, the pIC50 with MKN-74 was 4.63; in the experiment on HeLa, 4.71; with HL-60 it was 4.80.
